Laboratory results published in patent US6890762B1, “Method for measuring physiocochemical properties of tissues of cells, method for examining chemicals, and apparatus therefor” (Matsushita Technical Information Services Co., Ltd., priority 1996, dated 2005).

Assays:
slice of a rat heart = experiment: spontaneous activity potential of cultivated rat heart slice on integrated multiple electrode; assay type: cell-based; conditions: final concentration of 1 mM, added on the fifth day of the culturing
Description: This slice of a rat heart has been cultivated as explained below. […] The same culture medium as described in the first example was used. The structure of the integrated multiple electrode 2 and the surface processing was the same as described in the first example. In order to increase the adhesive strength between the tissue (the cells) and the microelectrodes 11 of the integrated multiple electrode 2, collagen gel (under 50 μm thick) has been applied to the surface of the integrated multiple electrode 2 before the culturing. Then the rat heart slice is placed and cultivated on the collagen gel where the microelectrodes 11 are. The rat heart slice is prepared, so that a sinoatrial node or an atrioventricular node is included. […] This culturing method is explained below. (a) A heart is taken from a two days old SD rat, and immersed in a Hanks' balanced salt solution cooled with ice water, with 0.25 vol. % D-glucose. The hanks' balanced salt solution is renewed several times to rinse out the blood completely. (b) Careful incision and preparation of a heart slice is performed, so that a sinoatrial node and an atrioventricular node are included in the heart slice. (c) The slice is adjusted with micro-scissors used in eye surgery to a size of about 1×1 mm. […]

[1] = test system: slice of the cerebral cortex of a rat; experiment: induced potential of cultivated rat cerebral cortex slice on integrated multiple electrode; assay type: cell-based; conditions: for chronic effect on the induced potential: 3 days after addition on the third day of culturing
Description: In this example, a slice of the cerebral cortex of a rat was used as nervous tissue and cultivated with the culturing method described below. As a change in the physical and chemical environment, the stimulant drug methamphetamine has been added to the culturing fluid. Furthermore, the electrophysiological properties of the tissue or cells, that is the induced potential when a stimulus has been applied, were measured as the physical and chemical properties of the tissue or cells.
Preceding the culturing of the cells, the surface of the integrated multiple electrode 2 was covered with collagen gel not thicker than 50 μm, to promote the adhesive strength between the microelectrodes 11 of the integrated multiple electrode 2 and the cells. Then the cerebral cortex slice of the rat (not thicker than 500 μm) was placed and cultivated on top of the microelectrodes 11 and the collagen gel. FIGS. 10(a)-(e) show the measured induced potentials 30 min after methamphetamine has been added in different concentrations to the culture medium on the sixth day of culturing, and FIGS. 11(a)-(c) show the measured induced potentials 3 days after methamphetamine has been added in different concentrations to the culture medium on the third day of culturing, together with the induced potential before the addition of the methamphetamine. In other words, FIGS. 10(a)-(e) show the acute effect of the methamphetamine and FIGS. 11(a)-(c) show the chronic effect of the methamphetamine.
(4-2) Culturing Method for a Rat Cerebral Cortex Slice
(a) A brain is taken from a two days old SD rat, and immersed in a Hanks' balanced salt solution cooled in iced water, with 0.25 vol. % D-glucose.
(b) In the cooled Hanks' balanced salt solution with 0.25 vol.% D-glucose, the meninges attached to the brain is removed carefully without damaging the cerebral cortex with a sharp-tipped pincette.
(c) A section is made with micro-scissors used in eye surgery, about 500 μm from the corpus callosum on one side of the cerebral cortex from which the meninges has been removed along the corpus callosum from the occipital lobe towards the frontal lobe.
(d) Next, a slice is prepared with micro-scissors used in eye surgery by cutting vertically 200-300 μm into the cerebral cortex from the sectional plane described under (c).
(e) Furthermore, the slice is adjusted with micro-scissors used in eye surgery to a size of about 1×1 mm.
(f) The integrated multiple electrode, the preparation of which has been explained under “(3) Surface Processing of the Integrated Multiple Electrode 2”, is taken out of the CO2 incubator, the adjusted slice of the cerebral cortex is carefully taken up without damaging it with a pipette with at least 2 mm opening diameter, and moved into the well of the integrated multiple electrode 2.
(g) The cerebral cortex is placed on the microelectrodes 11 with a layered portion pointing upwards, carefully so as not to damage the cerebral cortex, using a Pasteur pipette, the tip of which has been smoothed by heating with a burner.
(h) After the slice of the cerebral cortex has been placed on the integrated multiple electrode 2, the amount of the culture medium is adjusted so that the bottom of the slice is immersed in the culture medium and the top of the slice is in the open air.
(i) After the adjustment of the culture medium, the integrated multiple electrode 2 is placed on a Petri dish, about 5 mL of 37° C. sterile water is poured onto the Petri dish to prevent dehydration of the culture medium, and the integrated multiple electrode 2 is again placed in the CO2 incubator.
(j) While observing the amount of the culture medium, the culture medium was renewed once every day. The amount of the culture medium is adjusted as described in (i).

CNCC(O)c1ccc(O)c(O)c1 (centres unmarked) [adrenaline]
beat frequency of the spontaneous activity potential versus before the addition (slice of a rat heart): noticeably higher

CN[C@@H](C)Cc1ccccc1 [methamphetamine]
chronic effect on the induced potential ([1]; 0.01 mM methamphetamine): disappeared | acute effect on the induced potential ([1]; 0.1 mM methamphetamine, 30 min after addition on the sixth day of culturing): no noticeable acute effect | chronic effect on the induced potential ([1]; 0.1 mM methamphetamine): disappeared almost completely | acute effect on the induced potential (deflection) ([1]; 0.5 mM methamphetamine, 30 min after addition on the sixth day of culturing): somewhat smaller | acute effect on the induced potential ([1]; 1 mM methamphetamine, 30 min after addition on the sixth day of culturing): disappeared almost completely | induced potential after removal of the substance (chronic) ([1]; after the methamphetamine has been removed, chronic exposure): did not recover | induced potential after removal of the substance (acute) ([1]; methamphetamine removed from the fluid, culture medium returned to usual composition): recovered to almost the same condition as before
